Measured values as given in publication PMC5675611, “GZD824 suppresses the growth of human B cell precursor acute lymphoblastic leukemia cells by inhibiting the SRC kinase and PI3K/AKT pathways” (Oncotarget, 2016).

What was measured:
SUPB15 = assay: CCK8 viability / proliferation assay; type: cell-based; conditions: Homo sapiens, SUP-B15, 24 h, read-out: IC50, inhibition of proliferation
Description: (§1) Viability was calculated relative to time-matched untreated controls. D824 is short for GZD824 in the following figure. B. Left: representative flow cytometric analysis of NALM6 and SUPB15 cells treated with DMSO, 1μM, or 3μM of GZD824 for 24 hours. Right: Statistical analysis of AnnexinV-positive cells in GZD824 treated NALM6 and SUPB15 cells. C. Left: representative images of cell cycle distribution in NALM6 and SUPB15 cells treated with DMSO or 3μM of GZD824 for 24 hours. Right: Statistical analysis of the distribution of cells in G0/G1 phases in GZD824 treated cells. Data are shown as the mean ± SEM (error bars) from three independent experiments. Significance values: ^*P<0.05; ^**P<0.01; ^***P<0.001. […] For each plot they are listed in the order upper left, upper right, lower left, lower right.

NALM6 = assay: CCK8 viability / proliferation assay; type: cell-based; conditions: Homo sapiens, NALM-6, 24 h, read-out: IC50, inhibition of proliferation
Description: as §1

IRS1 = assay: Western blot of NALM6 cells; type: cell-based, human; conditions: NALM6, 1μM or 3μM, 24 hours
Description: (§2) Figure 6 GZD824 inhibits PI3K/AKT signaling in pre-B ALL cells A. […] Bars represent the mean percentages of AnnexinV+ cells in each group. B. Primary pre-B ALL cells from spleen of P#1 xenograft mouse treated with DMSO, GZD824 (1μM), IGF-1 (10ng/ML), or both. Bars represent the mean percentages of AnnexinV+ cells in each group. C. Western blot analysis of NALM6 cells. Cells were treated with DMSO, GZD824 (1μM), or GZD824 (3μM) for 24 hours. Lysates were analyzed with antibodies against IRS1, phosphate AKT, and AKT. D. Western blot analysis of primary pre-B ALL cells. Primary cells treated with GZD824 (1μM), IGF-1 (10ng/ML), or both for 24 hours. Lysates were analyzed with antibodies against Irs1, phosphate AKT, and AKT. For Western blot analysis, 30 μg of total protein extracts prepared from NALM6 or primary pre-B ALL cells from SP of PDX mice were separated on SDS-PAGE and transferred to a PVDF membrane (Bio-Rad, Hercules, CA, USA). […]

[1] = system: phosphorylated AKT (Ser473); assay: Western blot of NALM6 cells; type: cell-based, human; conditions: NALM6, 1μM or 3μM, 24 hours
Description: as §2

primary pre-B ALL cells = assay: Annexin V apoptosis of primary pre-B ALL cells; type: cell-based, human
Description: Human pre-B ALL cells were obtained from spleen (SP) of sick pre-B ALL xenograft mice. Human CD45+ pre-B ALL cells, accounting for over 95% of the total SP mononuclear cells, were subjected in vitro assay. To determine the in vitro anticancer efficacy of GZD824, the drug was applied to fresh splenic pre-B ALL cells that were directly isolated from sick pre-B ALL xenograft mice in 3 independent experiments. In addition, fresh splenic cells were analyzed 24 hours post drug treatment. At this time point about 20% of the total cells in the vehicle group are apoptotic. […] All cells were cultured at 37°C in 5% carbon dioxide and a normal level of oxygen.
For identification of apoptotic cells among NALM6, SUPB15, and primary pre-B ALL cells, the GZD824-treated cells were stained with Annexin V Apoptosis Detection Kit (88-8007, BD ebioscience, CA, USA) according to the manufacturer's instructions (Affymetrix ebioscience, CA, USA) and then subjected to flow cytometric analysis by the Accuri™ C6 (BD Biosciences, CA, USA). For the in vitro drug sensitivity test in Figure 6A, the human CD45+ cells in spleen and bone marrow from sick mice account for over 95% of the total. We enriched human CD45+ cells in PB by MACS according to the manufacturer's instruction. After the enrichment, the purity of human CD45+ cell in PB reached 95%. The percentage of apoptotic cells was demarcated as the amount of both early and late facets of apoptosis (annexin V positive), as previously described. All data were analyzed with FlowJo software (Tree Star, Inc., Ashland, USA).

NALM6 cells = assay: Cell-cycle analysis (PI staining, flow cytometry); type: cell-based, human
Description: Human pre-B ALL cell lines NALM6 and SUPB15 were purchased from American Type Culture Collection (ATCC, Maryland, USA). All pre-B ALL cell lines were maintained in cell culture media and conditions as recommended by the ATCC. Cells were treated with GZD824 for 24 hours. GZD824 (3μM, 1μM, or 0.5μM) was used in the experiments unless otherwise noted. NALM6 and SUPB15 cells were maintained in RPMI-1640 medium (Gibco, New York, NY, USA) with 10% fetal bovine serum (Biochrom, Melbourne, Australia). Cell cycle analysis was performed by flow cytometry after propidium iodide (PI) staining as described. Approximately 2 × 10^6 cells were suspended in 0.5 ml of phosphate-buffered saline (PBS) and vortexed with 3 ml of 80% ethanol. Cells were fixed at 4°C for 1 hr, washed with PBS, re-suspended in PBS, and vortexed vigorously. Cells were re-suspended in 1 ml of PBS containing 50 μg/ml of DNase-free RNase A (EN0531, Thermo Fisher scientific, Waltham, USA) and 50 μg/ml of propidium iodide PI (P4170, Sigma Aldrich, St. Louis, MO, USA). Cells were stained for at least 1 hr at room temperature in the dark. Stained cells were then subjected to flow cytometric analysis by an Accuri™ C6 (BD Biosciences, CA, USA).

Cc1ccc(C(=O)Nc2ccc(CN3CCN(C)CC3)c(C(F)(F)F)c2)cc1C#Cc1cnc2[nH]ncc2c1 [GZD824]
IC50 (SUPB15): > 500 nM
IC50 (NALM6): 500 nM
levels of IRS1 protein (IRS1): reduced
levels of phosphorylated AKT (Ser473) [1]: reduced
percentages of apoptotic cells (primary pre-B ALL cells; all five patient samples (P#1-P#5), 1μM, vs DMSO): significantly increased
percentages of apoptotic pre-B ALL cells derived from BM compared to those from SP and PB (primary pre-B ALL cells; cells from P#2 xenograft mice, 1μM GZD824, 24 hours in vitro): significantly lower
apoptotic levels, GZD824 alone vs both GZD824 and IGF-1 (primary pre-B ALL cells; primary pre-B ALL cells from spleen of P#1 xenograft mouse, GZD824 1μM, IGF-1 10ng/ML): much higher apoptotic levels
proportions of the G0/G1 fraction (NALM6 cells; NALM6, 500 nM): increased
percentage of the G0/G1 fraction (NALM6 cells; NALM6, 3μM, 24 hours): 71.6%
